Laboratory results: US9376424B2, “Methods for treating post traumatic stress disorder” (AZEVAN PHARMACEUTICALS, INC., priority 2010, dated 2016)
“Also recorded” adds a separate entry of the source.

How the values were obtained:
V1b receptor = molecular target: T1, V1b receptor (Homo sapiens, UniProt P47901); test: Human or rat vasopressin V1b cell-based receptor binding assay; conditions: selectivity table; read-out: inhibition data (Ki, nM), Receptor V1b
T1 construct: expressed in transfected cells; host or cells: CHO-K1 (ATCC), vector PCI-neo
T1 sequence (P47901 1-424): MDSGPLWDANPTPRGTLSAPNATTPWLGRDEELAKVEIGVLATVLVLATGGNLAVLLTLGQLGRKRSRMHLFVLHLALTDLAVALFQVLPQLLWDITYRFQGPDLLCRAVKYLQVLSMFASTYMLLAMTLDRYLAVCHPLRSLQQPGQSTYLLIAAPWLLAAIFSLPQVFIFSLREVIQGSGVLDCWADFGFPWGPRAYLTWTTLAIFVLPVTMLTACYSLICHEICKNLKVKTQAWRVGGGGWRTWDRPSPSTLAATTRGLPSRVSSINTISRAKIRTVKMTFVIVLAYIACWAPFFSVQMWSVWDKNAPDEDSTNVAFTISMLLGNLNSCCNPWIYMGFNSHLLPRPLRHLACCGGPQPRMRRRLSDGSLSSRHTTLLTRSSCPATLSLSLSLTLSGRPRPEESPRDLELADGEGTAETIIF
Source text: Human vasopression V1b receptor-expressing cells. Human vasopressin receptor 1b (hV1b) cDNA (see, Lolait et al., “Extrapituitary expression of the rat V1b vasopressin receptor gene” Proc. Natl. Acad. Sci. USA. 92:6783-7 (1995); de Keyzer et al., “Cloning and characterization of the human V3(V1b) pituitary vasopressin receptor” FEBS Lett. 356:215-20 (1994); Sugimoto et al., “Molecular cloning and functional expression of a cDNA encoding the human V1b vasopressin receptor” J. Biol. Chem. 269:27088-92 (1994)) was inserted into a mammalian cell expression vector PCI-neo (Promega) at EcoR1 site. The recombinant plasmid carrying hV1b cDNA was identified from transformed E. Coli clones and used for the transfection of Chinese hamster ovary cell (CHO-K1, ATCC). Two micrograms of hV1b receptor DNA was introduced into 10^5 CHO cells cultured in 6-well plate, using Fugene-6 mediated transfection technique (Boehringer Mannheim). Twenty-four hrs post transfection, Cells were then cultured under selection of G-418 (0.25 mg/ml) supplemented to the culture medium. Three days later, limited dilution was carried out to obtain single cell clones in 96-well plates. […]
Human or rat vasopression V1b cell-based receptor binding assay. […] Samples were counted in a liquid scintillation counter (Beckman LS3801). IC50 and Ki values were calculated using Prism Curve fitting software. […]

resident male rats = test: Resident-Intruder Model of Stress and Aggression in Rats (neuroimaging); type: in vivo, rat
Source text: Resident-Intruder Model of Stress and Aggression in Rats. Neuroimaging is used to assess the blockade of stress/arousal with test compound compared to control. The effect of AVN251-HCl on functional circuitry was examined using the imaging method for awake rats. Additional details of the assay are described in Ferris et al. (2008).
Male rats in the company of a female cage mate will piloerect in the presence of a male intruder. This piloerection is a sign of stress and aggressive intent and is associated with activation of stress/arousal circuits in the brain. […] Resident male rats from six male:female pairs were imaged while fully awake. During a single imaging session, these males were treated with vehicle or AVN251-HCl (5 mg/kg).
The total volume of brain activation for resident males confronted with their mate alone, mate plus intruder, and mate plus intruder in the presence of AVN251-HCl can be viewed as 3D models. While there appears to be a general decrease in BOLD signal in major regions with AVN251-HCl treatment, sexual motivation, as assessed by the presentation of a novel receptive female, was unaffected by V1a receptor blockade.
Stress circuit activation in response to an intruder male is assessed by obtaining brain scans viewed from a caudal/dorsal perspective as translucent shells. The localization of activated voxels is mapped as 3D volumes of activation, which are composed of 10 subjects each. Once fully registered and segmented, the statistical responses for each subject are averaged on a voxel-by-voxel basis. Those averaged voxels exceeding a 2.0% threshold are shown in their appropriate spatial location. Functional images are acquired on awake rats at 4.7 T.
The 3D volumes of activation are composed from results obtained with 10 subjects in each condition. […] Particular olfactory systems measured included the anterior olfactory nucleus, olfactory tubercle, piriform cortex, n. laterial olfactory tract, and entrorhinal cortex. Particular dopaminergic systems measured included the prelimbic cortex, accumbens, ventral pallidum, medial dorsal thalamus, and ventral tegmentum.
Awake rats were imaged when presented with their mate+an intruder, a highly stressful stimulus.

CN(Cc1cccc(C(F)(F)F)c1)C(=O)[C@@H](CC(=O)N1CCC(N2CCCCC2)CC1)N1C(=O)[C@@H](N2C(=O)OC[C@@H]2c2ccccc2)[C@H]1C=Cc1ccccc1 [Example 225, 2(R)-[[4-(Piperidinyl)piperidinyl]carbonylmethyl]-2-[3(S)-(4(S)-phenyloxazolidin-2-on-3-yl)-4(R)-(2-styryl)azetidin-2-on-1-yl]acetic acid N-methyl-N-(3-trifluoromethylbenzyl)amide]
Ki (V1b receptor): > 1000 nM
sexual motivation (reward circuit activation by novel receptive female) (resident male rats; awake resident male rats, 5 mg/kg, listed as AVN251, 5 mg/kg): activates reward circuitry; also recorded: remained intact
activation of stress/arousal circuit in response to male intruder (BOLD imaging) (resident male rats; awake resident male rats, mate plus intruder, 5 mg/kg): blocked the stress/arousal response
stress and aggressive motivation compared to controls (resident male rats; oral administration, intruder stimulus): blocked stress and aggressive motivation
